Results published in ChEMBL document CHEMBL1201862, “PubChem BioAssay data set” (2004).
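Interpolation was linear, between the two tested concentrations surrounding the appropriate level; five concentrations were tested over 48 hours in 96-well plates. GI50 is the concentration that inhibits growth by half.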 Calls of active or inactive are those of the source. Rule as the data show it: active = GI50 up to about 1.1 µM and inactive = higher.

Legend:
Test in all cases: DTP human tumour cell line panel, 48 h
786-0 = test system: 786-0
A549 = test system: A549
ACHN = test system: ACHN
BT-549 = test system: BT-549
CAKI-1 = test system: CAKI-1
CCRF-CEM = test system: CCRF-CEM
COLO 205 = test system: COLO 205
DU-145 = test system: DU-145
EKVX = test system: EKVX
HCT-116 = test system: HCT-116
HCT-15 = test system: HCT-15
HL-60 = test system: HL-60
HOP-62 = test system: HOP-62
HT-29 = test system: HT-29
Hs-578T = test system: Hs-578T
IGROV-1 = test system: IGROV-1
K562 = test system: K562
KM12 = test system: KM12
LOX IMVI = test system: LOX IMVI
M14 = test system: M14
MCF7 = test system: MCF7
MDA-MB-231 = test system: MDA-MB-231
MDA-MB-435 = test system: MDA-MB-435
MDA-N = test system: MDA-N
MOLT-4 = test system: MOLT-4
Malme-3M = test system: Malme-3M
NCI-H226 = test system: NCI-H226
NCI-H23 = test system: NCI-H23
NCI-H460 = test system: NCI-H460
NCI-H522 = test system: NCI-H522
NCI/ADR-RES = test system: NCI/ADR-RES
OVCAR-3 = test system: OVCAR-3
OVCAR-4 = test system: OVCAR-4
OVCAR-5 = test system: OVCAR-5
OVCAR-8 = test system: OVCAR-8
PC-3 = test system: PC-3
RPMI-8226 = test system: RPMI-8226
RXF 393 = test system: RXF 393
SF-268 = test system: SF-268
SK-MEL-28 = test system: SK-MEL-28
SK-MEL-5 = test system: SK-MEL-5
SK-OV-3 = test system: SK-OV-3
SN12C = test system: SN12C
SNB-19 = test system: SNB-19
SNB-75 = test system: SNB-75
SR = test system: SR
T47D = test system: T47D
TK-10 = test system: TK-10
U-251 = test system: U-251
UACC-257 = test system: UACC-257
UACC-62 = test system: UACC-62
UO-31 = test system: UO-31
A498 = test system: A498
HOP-92 = test system: HOP-92
SF-295 = test system: SF-295
SF-539 = test system: SF-539
SK-MEL-2 = test system: SK-MEL-2

O=c1[nH]c(=O)n(C2CC(O)C(CO)O2)cc1OCc1ccccc1 (stereo unspecified)
GI50 (786-0): > 100 µM (inactive)
GI50 (A549): > 100 µM (inactive)
GI50 (ACHN): > 100 µM (inactive)
GI50 (BT-549): > 100 µM (inactive)
GI50 (CAKI-1): > 100 µM (inactive)
GI50 (CCRF-CEM): > 100 µM (inactive)
GI50 (COLO 205): > 100 µM (inactive)
GI50 (DU-145): > 100 µM (inactive)
GI50 (EKVX): > 100 µM (inactive)
GI50 (HCT-116): > 100 µM (inactive)
GI50 (HCT-15): > 100 µM
GI50 (HL-60): > 100 µM (inactive)
GI50 (HOP-62): > 100 µM (inactive)
GI50 (HT-29): > 100 µM (inactive)
GI50 (Hs-578T): > 100 µM (inactive)
GI50 (IGROV-1): > 100 µM (inactive)
GI50 (K562): > 100 µM (inactive)
GI50 (KM12): > 100 µM (inactive)
GI50 (LOX IMVI): > 100 µM (inactive)
GI50 (M14): > 100 µM (inactive)
GI50 (MCF7): > 100 µM (inactive)
GI50 (MDA-MB-231): > 100 µM (inactive)
GI50 (MDA-MB-435): > 100 µM (inactive)
GI50 (MDA-N): > 100 µM (inactive)
GI50 (MOLT-4): > 100 µM (inactive)
GI50 (Malme-3M): > 100 µM (inactive)
GI50 (NCI-H226): > 100 µM (inactive)
GI50 (NCI-H23): > 100 µM (inactive)
GI50 (NCI-H460): > 100 µM (inactive)
GI50 (NCI-H522): > 100 µM (inactive)
GI50 (NCI/ADR-RES): > 100 µM (inactive)
GI50 (OVCAR-3): > 100 µM (inactive)
GI50 (OVCAR-4): > 100 µM (inactive)
GI50 (OVCAR-5): > 100 µM (inactive)
GI50 (OVCAR-8): > 100 µM (inactive)
GI50 (PC-3): > 100 µM (inactive)
GI50 (RPMI-8226): > 100 µM (inactive)
GI50 (RXF 393): > 100 µM (inactive)
GI50 (SF-268): > 100 µM (inactive)
GI50 (SK-MEL-28): > 100 µM (inactive)
GI50 (SK-MEL-5): > 100 µM (inactive)
GI50 (SK-OV-3): > 100 µM (inactive)
GI50 (SN12C): > 100 µM (inactive)
GI50 (SNB-19): > 100 µM (inactive)
GI50 (SNB-75): > 100 µM (inactive)
GI50 (SR): > 100 µM (inactive)
GI50 (T47D): > 100 µM (inactive)
GI50 (TK-10): > 100 µM (inactive)
GI50 (U-251): > 100 µM (inactive)
GI50 (UACC-257): > 100 µM (inactive)
GI50 (UACC-62): > 100 µM (inactive)
GI50 (UO-31): > 100 µM (inactive)

O=C(/C=C/c1ccc(O)c(O)c1)c1cc(O)cc(O)c1
GI50 (786-0): 13.7 µM (inactive)
GI50 (A498): 18.9 µM (inactive)
GI50 (A549): > 100 µM (inactive)
GI50 (ACHN): 14.7 µM (inactive)
GI50 (BT-549): 8.69 µM (inactive)
GI50 (CAKI-1): > 100 µM (inactive)
GI50 (CCRF-CEM): 2 µM (inactive)
GI50 (COLO 205): 17.2 µM (inactive)
GI50 (DU-145): 18.1 µM (inactive)
GI50 (EKVX): 20.6 µM (inactive)
GI50 (HCT-116): 12.8 µM (inactive)
GI50 (HCT-15): 15.7 µM
GI50 (HL-60): 2.25 µM (inactive)
GI50 (HOP-62): 21.4 µM (inactive)
GI50 (HOP-92): 13 µM (inactive)
GI50 (HT-29): 19.4 µM (inactive)
GI50 (Hs-578T): 11 µM (inactive)
GI50 (IGROV-1): 13.8 µM (inactive)
GI50 (LOX IMVI): 5.42 µM (inactive)
GI50 (M14): 14 µM (inactive)
GI50 (MCF7): 3.55 µM (inactive)
GI50 (MDA-MB-231): 12.8 µM (inactive)
GI50 (MDA-MB-435): 6.59 µM (inactive)
GI50 (MDA-N): 6 µM (inactive)
GI50 (MOLT-4): 4.91 µM (inactive)
GI50 (Malme-3M): 14.4 µM (inactive)
GI50 (NCI-H226): 14.8 µM (inactive)
GI50 (NCI-H23): 12.3 µM (inactive)
GI50 (NCI-H522): 1.71 µM (inactive)
GI50 (NCI/ADR-RES): 16.1 µM (inactive)
GI50 (OVCAR-3): 13.2 µM (inactive)
GI50 (OVCAR-4): 10.4 µM (inactive)
GI50 (OVCAR-5): 14.6 µM (inactive)
GI50 (OVCAR-8): 14.3 µM (inactive)
GI50 (PC-3): 13.5 µM (inactive)
GI50 (RPMI-8226): 71.6 µM (inactive)
GI50 (RXF 393): 10.4 µM (inactive)
GI50 (SF-268): 9.79 µM (inactive)
GI50 (SF-295): 19.7 µM (inactive)
GI50 (SF-539): 6.52 µM (inactive)
GI50 (SK-MEL-28): 16.4 µM (inactive)
GI50 (SK-MEL-2): 13 µM (inactive)
GI50 (SK-MEL-5): > 100 µM (inactive)
GI50 (SK-OV-3): 13.9 µM (inactive)
GI50 (SN12C): 13 µM (inactive)
GI50 (SNB-19): 14.5 µM (inactive)
GI50 (SNB-75): 12.2 µM (inactive)
GI50 (SR): 5.24 µM (inactive)
GI50 (T47D): 10.5 µM (inactive)
GI50 (TK-10): 15.3 µM (inactive)
GI50 (U-251): 10.8 µM (inactive)
GI50 (UACC-257): 10.7 µM (inactive)
GI50 (UACC-62): 12.9 µM (inactive)
GI50 (UO-31): 10.6 µM (inactive)
